The source of these data is paper PMC5907398, “Inhibition of Acetylcholinesterase and Butyrylcholinesterase by a Plant Secondary Metabolite Boldine” (BioMed Research International, 2018).

The target in experiment [1] is T1, Butyrylcholinesterase (BChE) (Homo sapiens, UniProt P06276).
T1 construct: from human serum
As to the kind of experiment: Ellman spectrophotometric assay with butyrylthiocholine, Dixon plot. It counts as biochemical. The settings on record: read-out: IC50 (μmol/l) by spectrophotometry.

The target of experiment [2] is T2, Acetylcholinesterase (AChE) (Homo sapiens, UniProt P22303).
T2 construct: human, recombinant (expressed in HEK 293 cells)
T2 sequence (P22303 32-614): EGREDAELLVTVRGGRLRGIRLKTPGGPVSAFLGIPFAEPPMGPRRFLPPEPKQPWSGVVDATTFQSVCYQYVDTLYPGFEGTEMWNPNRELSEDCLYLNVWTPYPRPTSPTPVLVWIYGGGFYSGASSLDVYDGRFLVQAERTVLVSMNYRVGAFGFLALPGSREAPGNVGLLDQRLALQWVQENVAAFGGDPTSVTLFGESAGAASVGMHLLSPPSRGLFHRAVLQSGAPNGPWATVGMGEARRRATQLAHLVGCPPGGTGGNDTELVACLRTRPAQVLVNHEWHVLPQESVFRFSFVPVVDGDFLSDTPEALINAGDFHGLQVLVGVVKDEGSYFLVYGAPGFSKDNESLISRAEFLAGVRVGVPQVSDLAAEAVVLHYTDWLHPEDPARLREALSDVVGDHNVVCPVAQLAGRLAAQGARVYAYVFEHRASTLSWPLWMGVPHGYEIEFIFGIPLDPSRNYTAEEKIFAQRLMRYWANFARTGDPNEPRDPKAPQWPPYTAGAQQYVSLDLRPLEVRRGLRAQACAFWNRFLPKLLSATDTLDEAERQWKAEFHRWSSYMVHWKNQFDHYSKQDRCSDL
As to the kind of experiment: Ellman spectrophotometric assay with acetylthiocholine, Dixon plot. Format: biochemical. The settings on record: read-out: IC50 (μmol/l) by spectrophotometry.

pIC50: −log10 of the molar value.

T1 sequence (P06276 29-602): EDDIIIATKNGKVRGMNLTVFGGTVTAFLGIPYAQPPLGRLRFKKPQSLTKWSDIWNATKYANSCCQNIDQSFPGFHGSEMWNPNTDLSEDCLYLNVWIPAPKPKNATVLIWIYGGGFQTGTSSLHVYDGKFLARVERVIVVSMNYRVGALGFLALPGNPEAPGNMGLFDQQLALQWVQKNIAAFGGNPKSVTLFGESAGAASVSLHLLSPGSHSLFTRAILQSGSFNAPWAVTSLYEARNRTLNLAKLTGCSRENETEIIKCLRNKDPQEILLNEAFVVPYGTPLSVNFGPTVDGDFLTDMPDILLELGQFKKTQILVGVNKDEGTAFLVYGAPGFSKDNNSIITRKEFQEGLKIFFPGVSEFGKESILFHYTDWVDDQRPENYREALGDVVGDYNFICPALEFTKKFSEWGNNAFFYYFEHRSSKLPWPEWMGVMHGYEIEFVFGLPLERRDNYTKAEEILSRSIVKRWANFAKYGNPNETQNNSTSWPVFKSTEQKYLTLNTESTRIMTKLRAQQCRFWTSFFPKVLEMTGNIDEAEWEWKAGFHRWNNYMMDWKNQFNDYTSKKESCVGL

In the case of `COc1cc2c(cc1O)C[C@H]1c3c(cc(O)c(OC)c3-2)CCN1C` [boldine, (S)-2,9-dihydroxy-1,10-dimethoxy-aporphine], the pIC50 was 3.49 in experiment [1] and 3.43 in experiment [2].
